Test results: patent US8742068B2, “Treatment and prevention of inflammatory diseases and autoimmune diseases” (Universiteit Utrecht Holding B.V., priority 2007, dated 2014)

Columns and labels:
DSS colitis [1] = assay: DSS colitis (Utrecht study, Example 5); type: in vivo, BALB/c mice; conditions: for Colon Length (cm), average: 4 x 30 μg oral gavage, 3% DSS 7 days, n=10
Description: This study is performed with female BALB/c mice aged 7 weeks at the start of the experiment. Groups of mice (n=10) were treated 4 times (days 7, 9, 11, 14) with 30 μg HSP70 in 100 μl PBS (Mt hsp70; batch 031205; 2.1 Endotoxin Units/mg) or vehicle (100 μl PBS), administered via oral gavage. 10 minutes prior to gavage animals received 2 mg soybean trypsin inhibitor (SBTI) in 0.15M sodium bicarbonate, pH 8.0. Colitis was induced by administering drinking water supplemented with 3% DSS during 7 days.
Disease onset was followed by determination of body weight and stool consistency, resulting in clinical state as explained in the table below.
At dissection, colon length was recorded
Colons were cut longitudinally and divided into parts to determine: • histology on formalin-fixed paraffin sections • MPO activity in homogenates (indicative for neutrophilic infiltrations) • Ex-vivo cytokine release (TNFα, IL10) from distal colon sample.
Total score is calculated by the adding the score for each parameter and divided by 3.
Distal colon samples were incubated for 24 h and IL10 content in supernatant was measured using a specific ELISA. IL10 release from distal colon sample in healthy BALB/c mice is 450±328 pg/g colon.

DSS colitis [2] = assay: DSS colitis, peroral treatment (Prague study, 2nd part, Example 4); type: in vivo, BALB/c mice
Description: (§1) Fifteen conventional female Balb/c female mice (7 to 9 weeks old) were randomly separated in […] (five mice each). To evaluate the efficacy of per oral treatment, the antigens (full length Mycobacterial HSP70 protein) were administered together with 1 mg of Soybean trypsin inhibitor (SBTI, Sigma) dissolved in 50 μl of 0.15 M sodium bicarbonate, by gavage 4 times in one week interval. After one week the mice received 3% dextran sodium sulphate (DSS) in their drinking water continuously for up to 8 days. Colitis was evaluated on day 36 by a clinical activity score, by colon length and histological score.
• treated: 100 μl of sterile PBS/SBTI intragastrically (Control) Group B2 (HSP60+DSS): • treated: HSP60 30 μg/mouse in 100 μl of sterile PBS/SBTI (1:1) intragastrically Group C2 (HSP70+DSS): • treated: HSP70 30 μg/mouse in 100 μl of sterile PBS/SBTI (1:1) intragastrically Results

TNBS-induced colitis = assay: TNBS colitis (Example 6); type: in vivo, BALB/c mice
Description: Female BALB/c mice (Charles River-Germany), 10-12 weeks of age at start of the experiment, were either treated intragastrically or intranasally with full HSP70 [SEQ ID NO: 55] or HSP70 peptides (Mycobacterial HSP70 derived peptide “C1” shown in SEQ ID NO: 3 and mouse homologue peptide “mC1a” of SEQ ID NO: 4) prior to disease induction. Mice received 4×30 μg HSP70 intragastrically, in a period of 4 weeks. Stomach contents were neutralized by administering soybean trypsin inhibitor (SBTI) 10 minutes prior to oral HSP70 administration.
Intranasal treatment was performed with 4×30 μg HSP70 or 4×(67 μg peptide C1 (Mycobacterial tub. HSP70 peptide 141-155, VLRIVNEPTAAALAY) mixed with 33 μg peptide mC1a (=mouse Grp75 (hspa9) peptide 216-230, […])), in a period of 1 week.
Next, mice were sensitized by painting the shaved abdomen with 1 mg of TNBS in 100 μl 50% ethanol on two consecutive days, followed by a rectal challenge with 1 mg TNBS in 100 μl 40% ethanol, after 6 days. Mice were dissected 3 days later, and colonic inflammation was determined based on colon length, weight and morphology. Furthermore, cytokine production within colon and draining caudal lymph nodes (CLN) were determined.
• A. Oral PBS, sensitization TNBS, challenge TNBS (control group) • B. Oral (full length) HSP70, sensitization TNBS, challenge TNBS (oral group) • C. […]

adjuvant arthritis = conditions: in vivo; cited from earlier work
DSS colitis [3] = assay: DSS colitis, peroral treatment (Prague study, 1st part, Example 3); type: in vivo, BALB/c mice
Description: as §1, with “sulfate” for “sulphate”, “7” for “8”, “35” for “36”
• treated: 100 μl of sterile PBS/SBTI intragastrically (Control group) Group B1 (HSP60+DSS): • treated: HSP60 30 μg/mouse in 100 μl of sterile PBS/SBTI (1:1) intragastrically Group C1 (HSP70+DSS): • treated: HSP70 30 μg/mouse in 100 μl of sterile PBS/SBTI (1:1) intragastrically Results

[4] = 30 μg/mouse intragastrically with SBTI, 4 times before 3% DSS, 5 mice
[5] = Multiple Range Tests, * p < 0.05

**Q.** What does the source list for “HSP70: full length Mycobacterial HSP70 protein (SEQ ID NO: 55)”?
**A.** Colon Length (cm), average (DSS colitis [1]): 6.8 cm; Colon Length (cm), average (DSS colitis [1]; listed as HSP70 protein): less decreased; disease severity (clinical score, disease progression) (DSS colitis [1]; pre-treatment 4 x 30 μg oral gavage): decreased disease severity; Histological grade, Average (DSS colitis [2]; [4]): 1.225; Weight change, Average (DSS colitis [2]; [4]): −0.44; Histological grade, Difference (contrast PBS minus treatment) (DSS colitis [2]; Multiple Range Tests): 0.35; Colon length, Difference (contrast PBS minus treatment) (DSS colitis [2]; [5]): *−1.02; Weight change, Difference (contrast PBS minus treatment) (DSS colitis [2]; [5]): *−4.62; symptoms of colitis compared to PBS (DSS colitis [2]; p=0.0057, 0.0387 and 0.0831 for colon length, weight loss and clinical state): significantly mitigates the symptoms of colitis; IL-10 responses in the caudal lymphnodes (TNBS-induced colitis; orally given, CD3/CD28 restimulation of draining lymph node cells): elevated IL-10 responses; effect on TNBS induced colitis (TNBS-induced colitis; prophylactically, HSP70 4x30 μg orally or intranasally, peptides 4x(67 μg C1 + 33 μg mC1a) intranasally): suppressive effect on TNBS induced colitis; development of adjuvant arthritis (adjuvant arthritis): reduce the development of adjuvant arthritis; Histological grade, Average (DSS colitis [3]; [4]): 1.4; Weight change, Average (DSS colitis [3]; [4]): −2.04; Colon length, Average (DSS colitis [3]; 30 μg/mouse intragastrically with SBTI, 4 times in one week interval before 3% DSS, day 35, 5 mice): 6.36; Clinical state, Difference (contrast PBS minus treatment) (DSS colitis [3]; [5]): *1.3332; Colon length, Difference (contrast PBS minus treatment) (DSS colitis [3]; [5]): −0.2; Histological grade, Difference (contrast PBS minus treatment) (DSS colitis [3]; [5]): *0.75; Weight change, Difference (contrast PBS minus treatment) (DSS colitis [3]; [5]): *−6.52; effect on colitis (DSS colitis [3]; administered orally, prophylactically (prior to disease induction)): suppressive effect on colitis; Clinical state, Average (DSS colitis [3]; total score of weight loss, stool consistency, bleeding divided by 3, 30 μg/mouse intragastrically, 5 mice): 2.1334
